Tested on: HEK293 cells
Assay: Preliminary screening as DNA vectors, GFP transfection of HEK293 cells
Format: cell-based
Outline: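 Lipid + DOPE liposomes (NaOAc, pH 5.6) complexed w/ 75 ng psin-EGFP-IRES-Puro, 30 min RT; added to 3-5×10^4 HEK293/well, 37° C. Hoechst 0.2 μg/mL at 20-24 h, imaged after further 20-24 h. Efficiency = GFP+ cells / total nuclei.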

[1] = amino lipid/DOPE liposome with 75 ng plasmid DNA (psin-EGFP-IRES-Puro), number of GFP-expressing cells divided by total nuclei (Hoechst)

Row | SMILES | Absolute DNA transfection efficiency in HEK293 cells [1] [%] | Absolute DNA transfection efficiency in HEK293 cells (HEK293 cells, lipid/DOPE liposome with 75 ng plasmid DNA (psin-EGFP-IRES-Puro), number of cells expressing GFP divided by total number of nuclei (Hoechst)) [%]
1 | CCCCCCCCCCCNc1nc(NCCN2CCN(C)CC2)nc(SCCCCCCCCC)n1 [S9N11 D5] | 45.0 | 
2 | CCCCCCCCCCCCCCSc1nc(NCCCCCCCCCCCC)nc(NCCN2CCCC2)n1 [S14N12 D3] | 21.0 | 
3 | CCCCCCSc1nc(NCCCN2CCOCC2)nc(SCCCCCC)n1 [S6S6 D8] | 0.8 | 
4 | CCCCCCCCCCCCCCCSc1nc(NCCCCCCCCCCCCC)nc(NCCN(CC)CC)n1 [S15N13 D7] | 5.5 | 
5 | CCCCCCCCCCCCCCSc1nc(NCCCCCC)nc(NCCCN2CCN(C)CC2)n1 [S14N6 D9] | 17.4 | 
6 | CCCCCCCCCCCCSc1nc(NCCCCCCC)nc(NCCN(CC)CC)n1 [S12N7 D7] | 3.4 | 
7 | CCCCCCCCCCCCCCCCCCSc1nc(NCCCCCCC)nc(NCCN(CC)CC)n1 [S18N7 D7] | 4.5 | 
8 | CCCCCCCCCCCCCCCNc1nc(NCCN(C)C)nc(SCCCCCCCCCCC)n1 [S11N15 D1] | 12.5 | 
9 | CCCCCCCCCCCCCCCCNc1nc(NCCN2CCOCC2)nc(SCCCCCCCCCCCC)n1 [S12N16 D2] | 0.0 | 
10 | CCCCCCCCCNc1nc(NCCN2CCCCC2)nc(SCCCCCCCC)n1 [S8N9 D4] | 15.5 | 
11 | CCCCCCCCCCCCCCCCCCNc1nc(NCCN2CCOCC2)nc(SCCCCCCCCC)n1 [S9N18 D2] | 10.2 | 
12 | CCCCCCCCCCSc1nc(NCCCCCCCCC)nc(NCCCN2CCN(C)CC2)n1 [S10N9 D9] | 12.0 | 
13 | CCCCCCCCCCCCSc1nc(NCCCN2CCN(C)CC2)nc(SCCCCCC)n1 [S6S12 D9] | 9.4 | 
14 | CCCCCCCCCCCCCCCCNc1nc(NCCN(CC)CC)nc(SCCCCCCCCCCCC)n1 [S12N16 D7] | 3.6 | 
15 | CCCCCCCCCCCCCCCCCCSc1nc(NCCCCCCCCCCC)nc(NCCN2CCCCC2)n1 [S18N11 D4] | 10.1 | 
16 | CCCCCCCCCCCCN(CCCCCCCCCCCC)c1nc(NCCCCCCCCCCC)nc(NCCN(C)C)n1 [Compound N112N12D1] |  | 0.7
17 | CCCCCCCCCCCCCCCCCCSc1nc(NCCCCCC)nc(NCCN2CCN(C)CC2)n1 [S18N6 D5] | 18.1 | 
18 | CCCCCCCCCCCCCCCCCCSc1nc(NCCCCCCCCCCC)nc(NCCN2CCCC2)n1 [S18N11 D3] | 4.2 | 
19 | CCCCCCCSc1nc(NCCCCCC)nc(NCCN(C)C)n1 [S7N6 D1] | 17.6 | 
20 | CCCCCCCCCCCCCCCSc1nc(NCCCN2CCN(C)CC2)nc(SCCCCCCC)n1 [S7S15 D9] | 1.6 | 
21 | CCCCCCCCCCCSc1nc(NCCCN2CCOCC2)nc(SCCCCCCC)n1 [S7S11 D8] | 11.1 | 
22 | CCCCCCCCCCCCNc1nc(NCCCN2CCOCC2)nc(SCCCCCCCCCCCC)n1 [S12N12 D8] | 0.0 | 
23 | CCCCCCCCCCCCN(CCCCCCCCCCCC)c1nc(NCCCN(C)C)nc(SCCCCCCCCCC)n1 [S10^2N12 D6] | 4.3 | 
24 | CCCCCCCCCCCCCCCCCCSc1nc(NCCCCCC)nc(NCCN(CC)CC)n1 [S18N6 D7] | 10.4 | 

Row | SMILES | Absolute DNA transfection efficiency in HEK293 cells [1] [%] | Absolute DNA transfection efficiency in HEK293 cells (HEK293 cells, lipid/DOPE liposome with 75 ng plasmid DNA (psin-EGFP-IRES-Puro), number of cells expressing GFP divided by total number of nuclei (Hoechst)) [%]
25 | CCCCCCCCCCCCCCCCCCNc1nc(NCCCN2CCOCC2)nc(SCCCCCC)n1 [S6N18 D8] | 8.1 | 
26 | CCCCCCCCCNc1nc(NCCN2CCCC2)nc(SCCCCCCC)n1 [S7N9 D3] | 12.3 | 
27 | CCCCCCCCCCCCSc1nc(NCCCCCCCC)nc(NCCN2CCN(C)CC2)n1 [S12N8 D5] | 13.8 | 
28 | CCCCCCCCCCCCN(CCCCCCCCCCCC)c1nc(NCCN2CCOCC2)nc(SCCCCCCCCCCC)n1 [S11^2N12 D2] | 0.0 | 
29 | CCCCCCCCCCCCCCCCSc1nc(NCCCCCCCCCCCCCCC)nc(NCCN2CCCCC2)n1 [S16N15 D4] | 2.6 | 
30 | CCCCCCCCCCCCCCCCSc1nc(NCCCN2CCOCC2)nc(SCCCCCCC)n1 [S7S16 D8] | 12.8 | 
31 | CCCCCCCCCCCCNc1nc(NCCCN2CCOCC2)nc(SCCCCCCC)n1 [S7N12 D8] | 17.7 | 
32 | CCCCCCCCCNc1nc(NCCN2CCOCC2)nc(SCCCCCC)n1 [S6N9 D2] | 0.2 | 
33 | CCCCCCCCCCCCNc1nc(NCCCN(C)C)nc(SCCCCCCC)n1 [S7N12 D6] | 54.6 | 
34 | CCCCCCCCCCCCCCCCSc1nc(NCCN(C)C)nc(SCCCCCCC)n1 [S7S16 D1] | 10.0 | 
35 | CCCCCCCCCCCCCCCCNc1nc(NCCN2CCCCC2)nc(SCCCCCCCCCC)n1 [S10N16 D4] | 4.4 | 
36 | CCCCCCCCCCCCSc1nc(NCCCCCCC)nc(NCCN2CCCC2)n1 [S12N7 D3] | 3.2 | 
37 | CCCCCCCCCCCCCCSc1nc(NCCCN2CCN(C)CC2)nc(SCCCCCCC)n1 [S7S14 D9] | 3.8 | 
38 | CCCCCCCCCCCCCCSc1nc(NCCCCCCCCC)nc(NCCN2CCCC2)n1 [S14N9 D3] | 30.7 | 
39 | CCCCCCCCCCCNc1nc(NCC2CCN(C)CC2)nc(SCCCCCCCC)n1 [S8N11 D10] | 46.3 | 
40 | CCCCCCCCCCCCCCCCSc1nc(NCCCCCCCCCCC)nc(NCCN2CCOCC2)n1 [S16N11 D2] | 9.6 | 
41 | CCCCCCCNc1nc(NCCN2CCOCC2)nc(SCCCCCC)n1 [S6N7 D2] | 0.0 | 
42 | CCCCCCCCCCCCCCCCCCNc1nc(NCCCN2CCN(C)CC2)nc(SCCCCCCC)n1 [S7N18 D9] | 4.2 | 
43 | CCCCCCCCCCCCCCSc1nc(NCCN2CCN(C)CC2)nc(SCCCCCC)n1 [S6S14 D5] | 18.6 | 
44 | CCCCCCCCCCCCN(CCCCCCCCCCCC)c1nc(NCCCN2CCOCC2)nc(SCCCCCCCCCC)n1 [S10^2N12 D8] | 0.0 | 
45 | CCCCCCCCCCCCCCCCCCSc1nc(NCCCCCCCCCCCCC)nc(NCCN(C)C)n1 [S18N13 D1] | 1.3 | 
46 | CCCCCCCCSc1nc(NCCN(CC)CC)nc(SCCCCCC)n1 [S6S8 D7] | 15.0 | 
47 | CCCCCCCNc1nc(NCCN(CC)CC)nc(SCCCCCCC)n1 [S7N7 D7] | 11.4 | 
48 | CCCCCCCCCCCCNc1nc(NCCCN2CCOCC2)nc(SCCCCCCCCCCC)n1 [S11N12 D8] | 1.5 | 

Row | SMILES | Absolute DNA transfection efficiency in HEK293 cells [1] [%] | Absolute DNA transfection efficiency in HEK293 cells (HEK293 cells, lipid/DOPE liposome with 75 ng plasmid DNA (psin-EGFP-IRES-Puro), number of cells expressing GFP divided by total number of nuclei (Hoechst)) [%]
49 | CCCCCCCCCCCCCCCNc1nc(NCCCN(C)C)nc(SCCCCCCCCCCC)n1 [S11N15 D6] | 8.2 | 
50 | CCCCCCCCCCCCCCCCCCSc1nc(NCCCCCCCCCCCCCCCC)nc(NCCCN(C)C)n1 [S18N16 D6] | 0.0 | 
51 | CCCCCCCCCSc1nc(NCCCCCC)nc(NCCN(C)C)n1 [S9N6 D1] | 16.1 | 
52 | CCCCCCCCCCCCCCCCCCSc1nc(NCCCN2CCOCC2)nc(SCCCCCCC)n1 [S7S18 D8] | 16.1 | 
53 | CCCCCCCCCCCCCNc1nc(NCC2CCN(C)CC2)nc(SCCCCCCCCC)n1 [S9N13 D10] | 29.4 | 
54 | CCCCCCCCCCCCCCCCCCSc1nc(NCCCCCCCCCCCCC)nc(NCCN2CCCCC2)n1 [S18N13 D4] | 0.0 | 
55 | CCCCCCCCSc1nc(NCCCCCCC)nc(NCCN2CCCCC2)n1 [S8N7 D4] | 3.8 | 
56 | CCCCCCCCCCCCCNc1nc(NCC2CCN(C)CC2)nc(SCCCCCC)n1 [S6N13 D10] | 51.6 | 
57 | CCCCCCCCCNc1nc(NCCCN2CCN(C)CC2)nc(SCCCCCC)n1 [S6N9 D9] | 0.8 | 
58 | CCCCCCCCCCCCCCCSc1nc(NCCN2CCN(C)CC2)nc(SCCCCCC)n1 [S6S15 D5] | 13.7 | 
59 | CCCCCCCCCCCCCCCSc1nc(NCCCCCCCCCCCCC)nc(NCCN(C)C)n1 [S15N13 D1] | 0.4 | 
60 | CCCCCCCCCNc1nc(NCCN(CC)CC)nc(SCCCCCCCCC)n1 [S9N9 D7] | 49.8 | 
61 | CCCCCCCCCCCCCCCCSc1nc(NCCCCCCCCCCCCC)nc(NCCCN2CCOCC2)n1 [S16N13 D8] | 0.2 | 
62 | CCCCCCCCCCCCCCCCCCSc1nc(NCCN(C)C)nc(SCCCCCC)n1 [S6S18 D1] | 9.8 | 
63 | CCCCCCCCCCCCN(CCCCCCCCCCCC)c1nc(NCCN2CCCC2)nc(SCCCCCCC)n1 [S7^2N12 D3] | 0.1 | 
64 | CCCCCCCCCCCCCCCCNc1nc(NCCCN(C)C)nc(SCCCCCCCCCCCC)n1 [S12N16 D6] | 2.1 | 
65 | CCCCCCCCNc1nc(NCCN2CCOCC2)nc(SCCCCCC)n1 [S6N8 D2] | 0.3 | 
66 | CCCCCCCCCCCCCCCSc1nc(NCCN(C)C)nc(SCCCCCCC)n1 [S7S15 D1] | 9.4 | 
67 | CCCCCCCCCCCCCCSc1nc(NCCCCCCCCCCCCC)nc(NCCCN(C)C)n1 [S14N13 D6] | 2.6 | 
68 | CCCCCCCCCCCCCCCNc1nc(NCC2CCN(C)CC2)nc(SCCCCCCCCCCCC)n1 [S12N15 D10] | 4.0 | 
69 | CCCCCCCCCCCCCCSc1nc(NCCCCCCC)nc(NCCCN(C)C)n1 [S14N7 D6] | 25.0 | 
70 | CCCCCCCCCCCCCNc1nc(NCCN2CCCCC2)nc(SCCCCCCCCCCCC)n1 [S12N13 D4] | 0.5 | 
71 | CCCCCCCCCCSc1nc(NCCN(CC)CC)nc(SCCCCCCC)n1 [S7S10 D7] | 20.2 | 

Source: US20230123334A1, “AMINO LIPID COMPOUND, PREPARATION METHOD THEREFOR, AND APPLICATION THEREOF” (SHENZHEN SHENXIN BIOTECHNOLOGY CO., LTD., priority 2020, published 2023)
